In patent US20260209297A1, “ANTIMICROBIAL PEPTIDES AND MODIFICATIONS THEREOF” (priority 2022, published 2026):
Converted amounts (≈) assume the structure as drawn. Read-outs that look alike come from different tables or passages of the source. Positions of bridges follow the written chain, without caps; N, C: chain ends. Residues, ends and D or L forms follow the SMILES beside them. No end group written: not given here.

Assays:
[1] = test system: B. cinerea; test: MIC antifungal assay in SFM culture media (with or without added salts); format: cell-based, Botrytis cinerea; details: for antifungal activity relative to the wild-type GMA4C_AC control, B. cinerea: in vitro, low cationic conditions
[2] = test system: F. graminearum; format: cell-based, Fusarium graminearum; details: in vitro, low cationic conditions
[3] = test system: F. oxysporum; test: MIC antifungal assay in SFM culture media; format: cell-based; details: in vitro, low cationic conditions
[4] = test system: P. capsici; test: MIC antifungal assay in SFM culture media; format: cell-based; details: in vitro, low cationic conditions
[5] = test system: P. capsici; test: Disease symptom reduction on tomato leaves; format: in vivo; details: compared with GMA4C_AC
From the text: Antifungal activity in planta.

[6] = test system: C. parapsilosis; test: MIC, CLSI M27/M38, half-strength potato dextrose broth; format: cell-based, Candida parapsilosis; details: C. parapsilosis ATCC 22019; Table 8
Protocol: (§1) MICs were determined at 24-72 hours.

[7] = test system: Coccidioides sp.; format: cell-based; details: Table 8
[8] = test system: Salmonella typhimurium var. Copenhagen; test: Antibacterial growth inhibition in Mueller-Hinton media (OD600); format: cell-based; details: 37° C. overnight
[9] = test system: Enterotoxigenic E. coli-F4; test: as above; format: cell-based; details: 37° C. overnight
Protocol: Salmonella typhimurium var. Copenhagen, Enterotoxigenic E. coli-F4 and Listeria monocytogens (F5244) strains were grown overnight on an LB agar plate at 37_C. A small number of bacteria was scraped from the plate and added to Mueller-Hinton (MH) growth media and grown to log phase. Cells were diluted to 1-3×10^6 CFU/mL and 50 μl were added to each well in a polypropylene 96-well plate. Synthesized peptide GMA4C_V1A was diluted into 0.2% BSA, 0.01% acetic acid solution and added to the concentration of 0.2, 0.4, 0.80, 1.6, 3.25, 7.5, 15, 30 and 60 and 120 µM. Then, 50 μl of each peptide solution was added to 50 μl of bacterial cells. Plates were parafilmed and incubated at 37° C. overnight. The concentrations at which bacterial growth inhibition was determined based on the OD600 nm value at each concentration relative to the OD600 nm value of MH medium alone and that of bacterial growth in MH medium without any peptide.

[10] = test system: L. monocytogenes F5244; test: as above; format: cell-based, Listeria monocytogens; details: 37° C. overnight
[11] = test system: Candida albicans; details: for MIC values (μg/ml) 100%: Table 8
[12] = test system: Candida auris; details: for MIC values (μg/ml) 100%: Table 8
[13] = test system: Aspergillus fumigatus; details: for MIC values (μg/ml) 100%: Aspergillus fumigatus AF293, Table 8
[14] = test system: Fusarium (F. oxysporum); test: MIC, CLSI M27/M38, half-strength potato dextrose broth; format: cell-based; details: Table 8
Protocol: as §1

[15] = test system: Fusarium (F. solani); test: as above; format: cell-based; details: Fusarium F4 (F. solani); Table 8
Protocol: as §1

[16] = test system: C. albicans; test: Peptide or protein/Fluconazole combination MIC and FICI; details: combination with Fluconazole
[17] = test system: Tricophyton rubrum; test: MIC against human nail pathogens; details: isolate 23014; Table 13
[18] = test system: Tricophyton metagrophytes; test: MIC against human nail pathogens; details: isolate 26103; Table 13

CC[C@H](C)[C@H](NC(=O)[C@H](CCCNC(=N)N)NC(=O)[C@@H](NC(=O)[C@H](CS)NC(=O)[C@H](Cc1ccccc1)NC(=O)[C@H](CS)NC(=O)[C@H](CCCNC(=N)N)NC(=O)[C@H](CCCNC(=N)N)NC(=O)[C@H](CCCNC(=N)N)NC(=O)[C@H](Cc1ccccc1)NC(=O)CNC(=O)[C@H](CCCCN)NC(=O)[C@H](CS)NC(=O)[C@H](CCCNC(=N)N)NC(=O)CNC(=O)CN)[C@@H](C)O)C(=O)N[C@@H](CS)C(N)=O [GMA4C_V1A] (H-GGRCKGFRRRCFCTRIC-NH2; N-terminus assumed)
fungal growth inhibition at 6 μM ([1]; B. cinerea, in presence of 2 mM CaCl2, 6 μM): inhibit fungal growth | potency of activity relative to GMA4C_AC ([1]; B. cinerea, in presence of 100 mM NaCl or 100 mM KCl): 2 fold | antifungal activity relative to the wild-type GMA4C_AC control, B. cinerea [1]: equivalent | antifungal activity relative to the wild-type GMA4C_AC control, F. graminearum [2]: equivalent | antifungal activity relative to the wild-type GMA4C_AC control, F. oxysporum [3]: equivalent | antifungal activity relative to the wild-type GMA4C_AC control, P. capsici [4]: equivalent | reducing disease symptoms caused by P. capsici [5]: more effective | MIC values (μg/ml) 100% [6]: 4 µg/mL (≈ 1.98 µM) | MIC values (μg/ml) 100% ([7]; Coccidioides sp. Cocci1): 8 µg/mL (≈ 3.96 µM) | MIC values (μg/ml) 100% ([7]; Coccidioides sp. Cocci2): 4 µg/mL (≈ 1.98 µM) | MIC values (μg/ml) 100% ([7]; Coccidioides sp. DI17-143): 8 µg/mL (≈ 3.96 µM) | Concentrations (in μM) at which growth inhibition was observed, S. Typhimurium var. Copenhagen [8]: 15 to 60 µM | Concentrations (in μM) at which growth inhibition was observed, Enterotoxigenic E. coli-F4 [9]: 7.5 to 60 µM | Concentrations (in μM) at which growth inhibition was observed, L. monocytogenes F5244 [10]: 15 to 30 µM | MIC values (μg/ml) 100% ([11]; Candida albicans ATCC 90028): 8 µg/mL (≈ 3.96 µM) | MIC values (μg/ml) 100% ([11]; Candida albicans CA3): 8 µg/mL (≈ 3.96 µM) | MIC values (μg/ml) 100% ([11]; Candida albicans SC5314): 8 µg/mL (≈ 3.96 µM) | MIC values (μg/ml) 100% ([12]; Candida auris DI17-46): 8 µg/mL (≈ 3.96 µM) | MIC values (μg/ml) 100% ([12]; Candida auris DI17-47): 8 µg/mL (≈ 3.96 µM) | MIC values (μg/ml) 100% ([12]; Candida auris DI17-48): 8 µg/mL (≈ 3.96 µM) | MIC values (μg/ml) 100% [13]: 32 µg/mL (≈ 15.9 µM)

CC[C@H](C)[C@H](NC(=O)[C@H](CCCNC(=N)N)NC(=O)[C@@H](NC(=O)[C@H](CS)NC(=O)[C@H](Cc1ccccc1)NC(=O)[C@H](CS)NC(=O)[C@H](CCCNC(=N)N)NC(=O)[C@H](CCCNC(=N)N)NC(=O)[C@H](CCCNC(=N)N)NC(=O)[C@H](Cc1ccccc1)NC(=O)CNC(=O)[C@H](CCCNC(=N)N)NC(=O)[C@H](CS)NC(=O)[C@H](CCCNC(=N)N)NC(=O)CNC(=O)CN)[C@@H](C)O)C(=O)N[C@@H](CS)C(N)=O [GMA4C_V2A] (H-GGRCRGFRRRCFCTRIC-NH2; N-terminus assumed)
antifungal activity relative to the wild-type GMA4C_AC control, B. cinerea [1]: two-fold reduction | antifungal activity relative to the wild-type GMA4C_AC control, F. graminearum [2]: two-fold reduction | MIC values (μg/ml) 100% [6]: 8 µg/mL (≈ 3.91 µM) | MIC values (μg/ml) 100% ([14]; Fusarium F1 (F. oxysporum)): 8 µg/mL (≈ 3.91 µM) | MIC values (μg/ml) 100% ([14]; Fusarium F2 (F. oxysporum)): 16 µg/mL (≈ 7.82 µM) | MIC values (μg/ml) 100% [15]: 8 µg/mL (≈ 3.91 µM) | MIC values (μg/ml) 100% ([7]; Coccidioides sp. Cocci1): 8 µg/mL (≈ 3.91 µM) | MIC values (μg/ml) 100% ([7]; Coccidioides sp. Cocci2): 16 µg/mL (≈ 7.82 µM) | MIC values (μg/ml) 100% ([7]; Coccidioides sp. DI17-143): 16 µg/mL (≈ 7.82 µM) | MIC values (μg/ml) 100% ([11]; Candida albicans ATCC 90028): 16 µg/mL (≈ 7.82 µM) | MIC values (μg/ml) 100% ([11]; Candida albicans CA3): 16 µg/mL (≈ 7.82 µM) | MIC values (μg/ml) 100% ([11]; Candida albicans SC5314): 16 µg/mL (≈ 7.82 µM) | MIC values (μg/ml) 100% ([12]; Candida auris DI17-46): 16 µg/mL (≈ 7.82 µM) | MIC values (μg/ml) 100% ([12]; Candida auris DI17-47): 16 µg/mL (≈ 7.82 µM) | MIC values (μg/ml) 100% ([12]; Candida auris DI17-48): 16 µg/mL (≈ 7.82 µM) | MIC values (μg/ml) 100% [13]: 32 µg/mL (≈ 15.6 µM)

CC[C@H](C)[C@H](NC(=O)[C@H](CCCNC(=N)N)NC(=O)[C@@H](NC(=O)[C@@H](NC(=O)[C@H](Cc1ccccc1)NC(=O)[C@@H](NC(=O)[C@H](CCCNC(=N)N)NC(=O)[C@H](CCCNC(=N)N)NC(=O)[C@H](CCCNC(=N)N)NC(=O)[C@H](Cc1ccccc1)NC(=O)CNC(=O)[C@H](CCCNC(=N)N)NC(=O)[C@H](CS)NC(=O)[C@H](CCCNC(=N)N)NC(=O)CNC(=O)CN)C(C)C)C(C)C)[C@@H](C)O)C(=O)N[C@@H](CS)C(N)=O [GMA4C_V3A] (H-GGRCRGFRRRVFVTRIC-NH2; N-terminus assumed)
antifungal activity relative to the wild-type GMA4C_AC control, B. cinerea [1]: equivalent | antifungal activity relative to the wild-type GMA4C_AC control, F. graminearum [2]: equivalent | antifungal activity relative to the wild-type GMA4C_AC control, F. oxysporum [3]: equivalent | antifungal activity relative to the wild-type GMA4C_AC control, P. capsici [4]: equivalent | Candida albicans (33795) MIC [11]: 2.8 µM | Candida auris (38883) MIC [12]: 5.6 µM | MIC in μM Aspergillus fumigatus (36843) [13]: 11.2 µM (≈ 22.8 µg/mL) | Interpretation [16]: Conclusion: GMA4C_v3 shows synergistic enhancement of antifungal activity against drug resistant C. albicans in combination with Fluconazole

OeDef1_V3: OeDef1 variant, printed with SEQ ID NO: 769 in Table 13 (GACLKNRHSKHYGWFWYYRHCY-NH2; disulfide 3-21 (inferred))
MIC in μM Aspergillus fumigatus (36843) ([13]; isolate 36843, Table 13): >7.9 µM | MIC in μM Tricophyton rubrum (23014) [17]: 4.0 µM | MIC in μM Tricophyton metagrophytes (26103) [18]: 4.0 µM
